The source of these data is US5523460A, “4-fluorobiphenyl derivatives” (Fujirebio Inc., priority 1993, dated 1996).

One experiment relates to biosynthesis of sterol. In words: Determination of Inhibition of Sterol Synthesis (liver, after oral administration to rats). The experiment is classed as in vivo, SD rats. Conditions: Rattus norvegicus, 2 h, read-out: Inhibition of Sterol Synthesis. As for the experimental part: Test 2 Determination of Inhibition of Sterol Synthesis
Representative compounds (0.3 mg/5ml/kg) suspended in a 5% arabic gum solution were orally given to SD rats weighing 150 to 200 g. One hour later, ^14 C-acetic acid (100 μCi/kg) was intraperitoneally injected, and furthermore one hour later, liver was removed to determine the inhibitory activity of each of the compounds on the biosynthesis of sterol in accordance with the method described in European Journal of Biochemistry (Eur. J. Biochem.) Vol.77, page 31 (1977).

Another experiment has as its target T1, HMG-CoA Reductase (Rattus norvegicus, UniProt P51639).
T1 sequence (P51639 1-887): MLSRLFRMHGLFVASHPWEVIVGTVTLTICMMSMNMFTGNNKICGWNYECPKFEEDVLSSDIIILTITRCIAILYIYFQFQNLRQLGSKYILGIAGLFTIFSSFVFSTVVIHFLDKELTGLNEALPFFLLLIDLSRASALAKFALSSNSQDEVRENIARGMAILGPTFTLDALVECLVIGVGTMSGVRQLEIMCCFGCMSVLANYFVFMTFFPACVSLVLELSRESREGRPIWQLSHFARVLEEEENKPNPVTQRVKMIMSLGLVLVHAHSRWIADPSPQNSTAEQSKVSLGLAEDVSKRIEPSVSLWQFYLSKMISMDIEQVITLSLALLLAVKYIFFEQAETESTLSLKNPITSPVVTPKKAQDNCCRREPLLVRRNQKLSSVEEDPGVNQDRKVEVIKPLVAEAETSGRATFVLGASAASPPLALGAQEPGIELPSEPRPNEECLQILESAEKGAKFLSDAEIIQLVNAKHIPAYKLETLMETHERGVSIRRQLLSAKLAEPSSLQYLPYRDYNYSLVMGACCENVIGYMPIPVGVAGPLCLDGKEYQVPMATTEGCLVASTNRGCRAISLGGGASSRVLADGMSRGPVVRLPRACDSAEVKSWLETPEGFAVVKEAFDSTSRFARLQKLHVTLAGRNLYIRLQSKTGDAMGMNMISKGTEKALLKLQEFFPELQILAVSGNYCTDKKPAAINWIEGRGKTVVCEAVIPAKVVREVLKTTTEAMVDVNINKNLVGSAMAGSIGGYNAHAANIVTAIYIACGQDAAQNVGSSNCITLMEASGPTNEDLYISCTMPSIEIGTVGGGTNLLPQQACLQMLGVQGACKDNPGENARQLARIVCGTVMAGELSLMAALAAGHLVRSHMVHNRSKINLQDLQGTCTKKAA
In words: biochemical. Conditions: method of J. Biol. Chem. Vol. 234, page 2835 (1959); read-out: HMG-CoA Reductase Inhibitory Activity IC50. As to the method: Test 1Determination of Inhibitory Activity on HMG-CoA Reductase
The inhibitory effect on HMG-CoA Reductase of each of representative examples of the 4-fluorobiphenyl derivatives prepared in the above-discussed examples was determined in accordance with the method described in Journal of Biological Chemistry (J. Biol. Chem.) Vol. 234, page 2835 (1959), and IC50 values were obtained.

Like-named read-outs stand apart in the source and are kept apart here.

For `COc1cc(C(C)C)c(/C=C/C(O)CC(O)CC(=O)O)c(-c2ccc(F)cc2)c1OC` (centres unmarked), the inhibition in vivo at 0.3 mg/kg in the experiment on biosynthesis of sterol (po) stood at 71%. Also, at HMG-CoA Reductase, the IC50 was 5.43 nM.

On to `COCCOc1c(OC)cc(C(C)C)c(/C=C/C(O)CC(O)CC(=O)O)c1-c1ccc(F)cc1` (centres unmarked), for which the inhibition in vivo at 0.3 mg/kg in the experiment on biosynthesis of sterol (po) was 60%. Further, the IC50 on HMG-CoA Reductase turned out to be 25.6 nM.

On to `COCCOCCOc1c(OC)cc(C(C)C)c(/C=C/C(O)CC(O)CC(=O)O)c1-c1ccc(F)cc1` (centres unmarked), for which the inhibition in vivo at 0.3 mg/kg with biosynthesis of sterol (po) was determined as 69%. Moreover, the half-maximal inhibitory concentration (IC50) on HMG-CoA Reductase stood at 9.43 nM.

In the case of `COCCOc1cc(C(C)C)c(/C=C/C(O)CC(O)CC(=O)O)c(-c2ccc(F)cc2)c1OC` (centres unmarked), the inhibition in vivo at 0.3 mg/kg in the experiment on biosynthesis of sterol (po) came out at 71%. Further, at HMG-CoA Reductase, the IC50 is 16.1 nM.

As for `COc1c(OCCO)cc(C(C)C)c(/C=C/C(O)CC(O)CC(=O)O)c1-c1ccc(F)cc1` (centres unmarked), the inhibition in vivo at 0.3 mg/kg in the experiment on biosynthesis of sterol (po) was 61%. Besides, at HMG-CoA Reductase, the IC50 turned out to be 20.4 nM.

As for `COCCOCCOc1cc(C(C)C)c(/C=C/C(O)CC(O)CC(=O)O)c(-c2ccc(F)cc2)c1OC` (centres unmarked), the inhibition in vivo at 0.3 mg/kg in the experiment with biosynthesis of sterol (po) was 62%. Moreover, the IC50 at HMG-CoA Reductase was 26.4 nM.

As for `COc1c(C)cc(C(C)C)c(/C=C/C(O)CC(O)CC(=O)O)c1-c1ccc(F)cc1` (centres unmarked), in the experiment on biosynthesis of sterol (po), the inhibition in vivo at 0.3 mg/kg is 65%. For the same molecule, the IC50 on HMG-CoA Reductase is 16.6 nM.

Turning to `COc1c(Cl)cc(C(C)C)c(/C=C/C(O)CC(O)CC(=O)O)c1-c1ccc(F)cc1` (centres unmarked), the inhibition in vivo at 0.3 mg/kg in the experiment on biosynthesis of sterol (po) turned out to be 71%. In addition, at HMG-CoA Reductase, the IC50 worked out at 18.7 nM.

As to `CCC(C)(C)C(=O)O[C@H]1C[C@@H](C)C=C2C=C[C@H](C)[C@H](CC[C@@H]3C[C@@H](O)CC(=O)O3)[C@H]21` [Simvastatin, reference compound], the inhibition in vivo at 0.3 mg/kg with biosynthesis of sterol (0.3 mg/5ml/kg oral in 5% arabic gum, SD rats, 14C-acetic acid (100 μCi/kg) i.p. 1 h later, liver removed 1 h after that) was 24%.

By IC50 is commonly meant the concentration that gives 50% inhibition.
